{"source": "paper PMC12752627", "about": "“Discovery of a Potent and Selective TEAD Degrader with Durable Degradation Activity” (Advanced Science, 2025)", "key": {"SmBiT-CRBN+LgBiT-TEAD1": {"target": "T1, SmBiT-CRBN+LgBiT-TEAD1 (Homo sapiens, UniProt P28347+Q96SW2)", "T1 construct": "ternary complex formation between CRBN (41‐442) and TEAD1‐YBD (208‐424) in HEK293T cells; expressed in transfected cells; host or cells: HEK293T (transient co-transfection)", "T1 sequence (Q96SW2 41-442)": "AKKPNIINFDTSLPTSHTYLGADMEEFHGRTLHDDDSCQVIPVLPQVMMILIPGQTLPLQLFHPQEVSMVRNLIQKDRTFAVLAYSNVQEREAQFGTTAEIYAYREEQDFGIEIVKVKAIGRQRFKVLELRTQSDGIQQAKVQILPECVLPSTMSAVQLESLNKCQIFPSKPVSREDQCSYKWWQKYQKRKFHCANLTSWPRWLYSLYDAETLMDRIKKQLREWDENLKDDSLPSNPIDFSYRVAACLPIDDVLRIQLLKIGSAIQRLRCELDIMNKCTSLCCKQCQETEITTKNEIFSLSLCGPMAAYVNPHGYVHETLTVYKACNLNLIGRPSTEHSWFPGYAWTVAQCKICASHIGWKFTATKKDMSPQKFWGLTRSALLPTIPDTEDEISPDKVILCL", "T1 sequence (P28347 208-424)": "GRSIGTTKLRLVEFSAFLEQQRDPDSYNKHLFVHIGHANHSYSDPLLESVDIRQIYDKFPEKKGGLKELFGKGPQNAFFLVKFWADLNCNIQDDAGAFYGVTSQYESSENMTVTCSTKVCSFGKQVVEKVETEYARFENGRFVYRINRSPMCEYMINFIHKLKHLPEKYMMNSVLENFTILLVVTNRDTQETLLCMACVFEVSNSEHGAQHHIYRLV", "assay": "NanoBiT recruitment assay (ternary complex formation) in HEK293T cells", "type": "cell-based", "settings": "3 h", "procedure": "CRBN was cloned into the SmBiT Flexi vector pFN35K (Promega), while TEAD1 was cloned into the Promega LgBiT Flexi vector pFN33K (Promega). A total of 8 µg of plasmid DNA, consisting of 2 µg of SmBiT‐CRBN plasmid and 6 µg of LgBiT‐TEAD1 plasmid, was mixed with 24 µL of the liposome transfection reagent Lipo2000 (Meilunbio, #MA0672), added to 300 µL of Opti‐MEM Reduced Serum medium (Meilunbio, #PWL042), and incubated for 20 min at room temperature. The resulting mixture was then added to 3 mL of HEK293T cell suspension at a density of 1 × 10^6 cells mL^−1 in DMEM medium containing 1% FBS, mixed thoroughly, and 18.4 µL of the mixture was transferred to each well of a white 384‐well plate (Corning, #3570), followed by incubation for 24 h. Subsequently, 2.5 µL of MLN4924 (MCE, #HY‐70062) was added to reach a final concentration of 1 µM, and the cells were incubated for an additional 4 h. Next, 3 µL of compound KG‐FP‐003 at the indicated concentrations was added, and incubation continued for 3 more hours. Afterward, a mixture of Nano‐Glo Live Cell Substrate and Nano‐Glo LCS Dilution Buffer (Promega, #N2011) was added to the 384‐well plates at 6 µL per well and incubated for 20 min at room temperature. Finally, the luminescence signal was measured using an Envision plate reader (Revvity), and the data were analyzed using GraphPad Prism 9.5 software."}, "MSTO-211H xenograft": {"test_system": "MSTO-211H xenograft", "assay": "MSTO-211H xenograft pharmacodynamic study (3 mg/kg i.p.)", "type": "in vivo, BALB/c nude mice", "settings": "3 mg/kg i.p. q.d. 21 days", "procedure": "Animal experiments were conducted by Medsyin (Shanghai) Co., Ltd. The experimental protocol was approved by the IACUC of the company (No.: PZWH20240527‐1) and strictly adhered to the guidelines of AAALAC. The specific procedures are as follows: 5 × 10^6 MSTO‐211H cells were suspended in 100 µL of a mixture of PBS and Matrigel and inoculated subcutaneously into the right axilla of 6‐week‐old BALB/c nude mice. Drug administration was initiated on day 7 after cell inoculation (when the average tumor volume was ≈150 mm^3). The experiment was divided into two groups: one group served as the control group, and the other group received drug administration via intraperitoneal injection at a dose of 3 mg kg^−1 (6 mice in each group), once a day for 21 consecutive days. During the experiment, the body weight and tumor volume of the mice were measured twice a week. At the end of the experiment, the mice were sacrificed and tumor tissues were collected."}, "ES2 cells": {"test_system": "ES2 cells", "assay": "Cell viability assay (CTG, 72 h) ES2", "type": "cell-based", "settings": "Homo sapiens, ES-2, 72 h, 3-day compound treatment", "procedure": "(§1) Cells were seeded at a density of 1000 cells per well in 96‐well flat‐bottomed cell culture plates and cultured overnight at 37 °C with 5% CO2 to allow for cell attachment. The following day, different concentrations of compounds were added using an I‐DOT dispenser. After 72 h, 25 µL of CellTiter‐Meiluncell Luminescent Cell Viability Reagent (Meilunbio, #PWL111‐2) was added and incubated for 15 min at room temperature. Luminescence signals were then measured using an Envision plate reader (Revvity). Data were analyzed using GraphPad Prism 9.5 software.^[ [30] ^]"}, "MSTO-211H cells": {"test_system": "MSTO-211H cells", "assay": "Cell viability assay (CTG, 72 h) MSTO-211H", "type": "cell-based", "settings": "Homo sapiens", "procedure": "as §1"}, "TEAD1, TEAD3, and TEAD4": {"test_system": "TEAD1, TEAD3, and TEAD4", "assay": "Immunoblot dose-response in TEAD1-mNeonGreen fusion NCI-H1299 cells", "type": "cell-based", "settings": "6 h", "procedure": "Immunoblotting was carried out as previously described.^[ [29] ^] Cells were seeded in 6‐well plates (Yeasen, #84011ES50) at a density of 1 million cells per well. The following day, cells were treated with compounds at the required concentrations, with the DMSO concentration kept below 0.4‰ to prevent toxic effects on the cells. The collected cell pellets were washed three times with PBS (Meilunbio, #MA0015) and resuspended in 120 µL of RIPA lysis buffer (Meilunbio, #MA0151) containing 1% protease inhibitor (Meilunbio, #MB2678‐2). The cells were then sonicated on ice and centrifuged at 12 000 rpm for 15 min at 4 °C to remove cellular debris. Protein concentrations were determined using the BCA Protein Quantification Kit (Meilunbio, #MA0082‐1). The protein samples were normalized, boiled at 99 °C for 10 min, and then subjected to electrophoresis on a 10% SDS‐PAGE gel. The separated protein bands were transferred to nitrocellulose membranes, blocked with TBST containing 5% BSA, and incubated with the indicated primary antibodies. Finally, the blots were imaged using an Amersham Typhoon NIR imager."}, "A172 cells": {"test_system": "A172 cells", "assay": "RNA-seq transcriptomics in A172 cells", "type": "cell-based", "settings": "30 nM, 24 h", "procedure": "Following treatment, cells were harvested, washed three times with pre‐chilled PBS, and stored at −80 °C. Total RNA was extracted using TRIzol reagent according to the manufacturer's instructions. mRNA was enriched using oligo(dT) magnetic beads, followed by fragmentation in First Strand Synthesis Reaction Buffer (5×) with divalent cations under elevated temperature.\nRNA‐seq libraries were constructed using the ABclonal Fast RNAseq Lib Prep Kit V2 (#RK20306). […] Base calling was performed through real‐time fluorescence capture of polymerase‐driven extension reactions using fluorescently labeled dNTPs and adapter‐anchored primers. Gene‐level read counts were quantified using featureCounts (v2.0.6) and normalized to FPKM values by incorporating gene length. Differential expression analysis was conducted using the DESeq2 package (v1.42.0) for samples with biological replicates, based on the negative binomial distribution. P‐values were adjusted using the Benjamini–Hochberg method, with significance thresholds set at adjusted p ≤ 0.05 and |log2(fold change)| ≥ 1. For samples without replicates, edgeR (v4.0.16) was used, with scaling normalization applied to correct for sequencing depth differences. Functional enrichment analysis, including Gene Ontology (GO) and KEGG pathway analysis, was performed using clusterProfiler (v4.8.1), with correction for gene length bias. A significance threshold of adjusted p < 0.05 was applied. In addition, Gene Set Enrichment Analysis (GSEA) was performed to assess coordinated expression changes in predefined gene sets (GO and KEGG), with genes ranked by the magnitude of differential expression. All transcriptomic experiments were performed by Novogene Co., Ltd."}}, "note": "Like-named read-outs stand apart in the source and are kept apart here.", "data": [{"smiles": "CNC(=O)c1cc2c(c(F)c1-c1c(Cl)c(F)cc3c1C[C@@](CN[C@H]1CC[C@H](C(=O)N4CCC(CC5CCN(C(=O)COc6ccc(N7CCC(=O)NC7=O)c(C)c6)CC5)CC4)CC1)(c1ccccc1)O3)[C@@H](O)[C@@H](C)C2", "note": "[KG-FP-003]", "values": [{"measurement": "EC50", "setting": "SmBiT-CRBN+LgBiT-TEAD1", "result": "8 ± 4", "unit": "nM"}, {"measurement": "TEAD1 protein degradation in tumor", "setting": "MSTO-211H xenograft", "result": "pronounced degradation of TEAD1 protein"}, {"measurement": "Tumor growth inhibition versus vehicle", "setting": "MSTO-211H xenograft", "result": "significant tumor growth inhibition"}, {"measurement": "IC50", "setting": "ES2 cells", "result": "202 ± 14", "unit": "nM"}, {"measurement": "IC50", "setting": "MSTO-211H cells; 72 h, 3-day antiproliferation, Figure 3C, read-out: IC50 (nM ± SD), MSTO-211H", "result": "47 ± 5", "unit": "nM"}, {"measurement": "IC50", "setting": "MSTO-211H cells; wild-type, Figure 3D, read-out: MSTO-211H: WT IC50", "result": "47 ± 5", "unit": "nM"}, {"measurement": "DC50 against TEAD1, TEAD3, and TEAD4 by immunoblot", "setting": "TEAD1, TEAD3, and TEAD4", "result": "nanomolar range"}, {"measurement": "Share of the compound's regulated genes in the 56-gene overlap", "setting": "A172 cells", "result": 4, "unit": "%"}, {"measurement": "DEG gene counts (Down)", "setting": "A172 cells; VS Control (DMSO)", "result": 611}, {"measurement": "DEG gene counts (Up)", "setting": "A172 cells; VS Control (DMSO)", "result": 662}]}]}
